The source of these data is patent US11713344B2 (DONG-A ST CO., LTD., priority 2017, dated 2023).

One test addresses Human glucagon receptors (Homo sapiens, UniProt P47871). Kind of test: Glucagon receptor activation assay (CRE-luciferase reporter, CHO-K1).
For a further test, the target named is Human GLP-1 receptors (Homo sapiens, UniProt P43220). Kind of test: GLP-1 receptor activation assay (CRE-luciferase reporter, CHO-K1). On the technique in general: In a reporter assay the amount or activity of a reporter protein is the signal.
Chain of Human GLP-1 receptors (P43220 24-463): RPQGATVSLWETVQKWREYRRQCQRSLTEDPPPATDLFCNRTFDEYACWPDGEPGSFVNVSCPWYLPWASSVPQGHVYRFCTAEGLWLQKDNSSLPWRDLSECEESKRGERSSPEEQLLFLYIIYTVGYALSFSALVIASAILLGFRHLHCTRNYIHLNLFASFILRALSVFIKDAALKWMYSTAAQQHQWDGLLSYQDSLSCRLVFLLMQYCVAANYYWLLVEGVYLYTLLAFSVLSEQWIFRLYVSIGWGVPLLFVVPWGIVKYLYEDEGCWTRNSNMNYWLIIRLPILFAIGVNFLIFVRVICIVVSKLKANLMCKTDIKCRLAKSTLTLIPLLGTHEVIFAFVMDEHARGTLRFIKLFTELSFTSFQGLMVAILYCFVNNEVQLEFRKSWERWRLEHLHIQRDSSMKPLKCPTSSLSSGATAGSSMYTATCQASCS

A value given as a limit tells only on which side of the number the result lay.

What is called EC50 is the concentration at which the effect is half-maximal. Lower therefore signals a more potent agent.

Chain of Human glucagon receptors (P47871 26-477): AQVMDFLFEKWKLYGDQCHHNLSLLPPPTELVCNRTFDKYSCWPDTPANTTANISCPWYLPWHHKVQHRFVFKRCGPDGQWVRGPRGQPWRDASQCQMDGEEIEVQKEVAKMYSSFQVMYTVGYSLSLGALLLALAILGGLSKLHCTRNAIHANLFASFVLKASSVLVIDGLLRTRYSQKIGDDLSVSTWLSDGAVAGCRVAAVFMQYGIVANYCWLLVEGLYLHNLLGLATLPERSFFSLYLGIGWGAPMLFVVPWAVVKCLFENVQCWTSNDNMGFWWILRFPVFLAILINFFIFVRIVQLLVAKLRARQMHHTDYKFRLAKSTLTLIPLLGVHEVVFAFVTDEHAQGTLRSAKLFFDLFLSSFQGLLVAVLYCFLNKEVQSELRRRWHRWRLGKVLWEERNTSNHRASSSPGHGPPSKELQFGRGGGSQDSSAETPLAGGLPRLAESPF

With `CCCCCCCCCCCCCCCCCCCC(=O)N[C@@H](CCC(=O)NCCOCCOCC(=O)NCCOCCOCC(=O)NCCCC[C@H](NC(=O)[C@H](CC(=O)O)NC(=O)[C@H](CO)NC(=O)[C@@H](NC(=O)[C@H](Cc1ccccc1)NC(=O)[C@@H](NC(=O)CNC(=O)[C@H](CCC(N)=O)NC(=O)C(C)(C)NC(=O)[C@@H](N)Cc1c[nH]cn1)[C@@H](C)O)[C@@H](C)O)C(=O)N[C@@H](CO)C(=O)N[C@@H](CCCCN)C(=O)N[C@@H](Cc1ccc(O)cc1)C(=O)N[C@@H](CC(C)C)C(=O)N[C@@H](CC(=O)O)C(=O)NC(C)(C)C(=O)N[C@@H](CCCNC(=N)N)C(=O)N[C@@H](CCCNC(=N)N)C(=O)N[C@@H](C)C(=O)N[C@@H](CCC(N)=O)C(=O)N[C@@H](CC(=O)O)C(=O)N[C@@H](Cc1ccccc1)C(=O)N[C@H](C(=O)N[C@@H](CCC(N)=O)C(=O)N[C@@H](Cc1c[nH]c2ccccc12)C(=O)N[C@@H](CC(C)C)C(=O)N[C@@H](CCSC)C(=O)N[C@@H](CC(N)=O)C(=O)N[C@H](C(=O)N[C@@H](CCCCN)C(=O)O)[C@@H](C)O)C(C)C)C(=O)O` [Compound 8], the EC50 at Human glucagon receptors and at Human GLP-1 receptors was 0.01 to 0.1 nM in each case.

For `CCCCCCCCCCCCCCCCCC(=O)N[C@@H](CCC(=O)N[C@@H](CCC(=O)NCCOCCOCC(=O)NCCOCCOCC(=O)NCCCC[C@H](NC(=O)[C@H](CC(=O)O)NC(=O)[C@H](CO)NC(=O)[C@@H](NC(=O)[C@H](Cc1ccccc1)NC(=O)[C@@H](NC(=O)CNC(=O)[C@H](CCC(N)=O)NC(=O)C(C)(C)NC(=O)[C@@H](N)Cc1c[nH]cn1)[C@@H](C)O)[C@@H](C)O)C(=O)N[C@@H](CO)C(=O)N[C@@H](CCCCN)C(=O)N[C@@H](Cc1ccc(O)cc1)C(=O)N[C@@H](CC(C)C)C(=O)N[C@@H](CC(=O)O)C(=O)NC(C)(C)C(=O)N[C@@H](CCCNC(=N)N)C(=O)N[C@@H](CCCNC(=N)N)C(=O)N[C@@H](C)C(=O)N[C@@H](CCC(N)=O)C(=O)N[C@@H](CC(=O)O)C(=O)N[C@@H](Cc1ccccc1)C(=O)N[C@H](C(=O)N[C@@H](CCC(N)=O)C(=O)N[C@@H](Cc1c[nH]c2ccccc12)C(=O)N[C@@H](CC(C)C)C(=O)N[C@@H](CCSC)C(=O)N[C@@H](CC(N)=O)C(=O)N[C@H](C(=O)N[C@@H](CCCCN)C(=O)O)[C@@H](C)O)C(C)C)C(=O)O)C(=O)O` [Compound 9], the 50% effective concentration (EC50) on Human glucagon receptors and on Human GLP-1 receptors was less than 0.01 nM in each case.

As for `CCCCCCCCCCCCCCCCCC(=O)N[C@@H](CCC(=O)NCCOCCOCC(=O)NCCOCCOCC(=O)NCCOCCOCC(=O)NCCCC[C@H](NC(=O)[C@H](CC(=O)O)NC(=O)[C@H](CO)NC(=O)[C@@H](NC(=O)[C@H](Cc1ccccc1)NC(=O)[C@@H](NC(=O)CNC(=O)[C@H](CCC(N)=O)NC(=O)C(C)(C)NC(=O)[C@@H](N)Cc1c[nH]cn1)[C@@H](C)O)[C@@H](C)O)C(=O)N[C@@H](CO)C(=O)N[C@@H](CCCCN)C(=O)N[C@@H](Cc1ccc(O)cc1)C(=O)N[C@@H](CC(C)C)C(=O)N[C@@H](CC(=O)O)C(=O)NC(C)(C)C(=O)N[C@@H](CCCNC(=N)N)C(=O)N[C@@H](CCCNC(=N)N)C(=O)N[C@@H](C)C(=O)N[C@@H](CCC(N)=O)C(=O)N[C@@H](CC(=O)O)C(=O)N[C@@H](Cc1ccccc1)C(=O)N[C@H](C(=O)N[C@@H](CCC(N)=O)C(=O)N[C@@H](Cc1c[nH]c2ccccc12)C(=O)N[C@@H](CC(C)C)C(=O)N[C@@H](CCSC)C(=O)N[C@@H](CC(N)=O)C(=O)N[C@H](C(=O)N[C@@H](CCCCN)C(=O)O)[C@@H](C)O)C(C)C)C(=O)O` [Compound 10], the half-maximal effective concentration (EC50) on Human glucagon receptors and at Human GLP-1 receptors was less than 0.01 nM in each case.

With `CCCCCCCCCCCCCCCCCC(=O)N[C@@H](CCC(=O)NCC(=O)N[C@@H](CO)C(=O)NCC(=O)N[C@@H](CO)C(=O)NCC(=O)NCC(=O)NCCCC[C@H](NC(=O)[C@H](CC(=O)O)NC(=O)[C@H](CO)NC(=O)[C@@H](NC(=O)[C@H](Cc1ccccc1)NC(=O)[C@@H](NC(=O)CNC(=O)[C@H](CCC(N)=O)NC(=O)C(C)(C)NC(=O)[C@@H](N)Cc1c[nH]cn1)[C@@H](C)O)[C@@H](C)O)C(=O)N[C@@H](CO)C(=O)N[C@@H](CCCCN)C(=O)N[C@@H](Cc1ccc(O)cc1)C(=O)N[C@@H](CC(C)C)C(=O)N[C@@H](CC(=O)O)C(=O)NC(C)(C)C(=O)N[C@@H](CCCNC(=N)N)C(=O)N[C@@H](CCCNC(=N)N)C(=O)N[C@@H](C)C(=O)N[C@@H](CCC(N)=O)C(=O)N[C@@H](CC(=O)O)C(=O)N[C@@H](Cc1ccccc1)C(=O)N[C@H](C(=O)N[C@@H](CCC(N)=O)C(=O)N[C@@H](Cc1c[nH]c2ccccc12)C(=O)N[C@@H](CC(C)C)C(=O)N[C@@H](CCSC)C(=O)N[C@@H](CC(N)=O)C(=O)N[C@H](C(=O)N[C@@H](CCCCN)C(=O)O)[C@@H](C)O)C(C)C)C(=O)O` [Compound 11], the concentration for a half-maximal effect (EC50) is 0.01 to 0.1 nM on Human glucagon receptors and less than 0.01 nM at Human GLP-1 receptors.

Turning to `CCCCCCCCCCCCCCCCCC(=O)N[C@@H](CCC(=O)NCCOCCOCC(=O)NCCOCCOCC(=O)NCCCC[C@H](NC(=O)[C@H](CC(=O)O)NC(=O)[C@H](CO)NC(=O)[C@@H](NC(=O)[C@H](Cc1ccccc1)NC(=O)[C@@H](NC(=O)CNC(=O)[C@H](CCC(N)=O)NC(=O)C(C)(C)NC(=O)[C@@H](N)Cc1c[nH]cn1)[C@@H](C)O)[C@@H](C)O)C(=O)N[C@@H](CO)C(=O)N[C@@H](CCCCN)C(=O)N[C@@H](Cc1ccc(O)cc1)C(=O)N[C@@H](CC(C)C)C(=O)N[C@@H](CC(=O)O)C(=O)NC(C)(C)C(=O)N[C@@H](CCCNC(=N)N)C(=O)N[C@@H](CCCNC(=N)N)C(=O)N[C@@H](C)C(=O)N[C@@H](CCC(N)=O)C(=O)N[C@@H](CC(=O)O)C(=O)N[C@@H](Cc1ccccc1)C(=O)N[C@H](C(=O)N[C@@H](CCC(N)=O)C(=O)N[C@@H](Cc1c[nH]c2ccccc12)C(=O)N[C@@H](CC(C)C)C(=O)N[C@@H](CC(C)C)C(=O)N[C@@H](CCCNC(=N)N)C(=O)N[C@@H](C)C(=O)N[C@@H](CCCCN)C(=O)O)C(C)C)C(=O)O` [Compound 12], the half-maximal effective concentration (EC50) on Human glucagon receptors and on Human GLP-1 receptors was less than 0.01 nM throughout.

With `CSCC[C@H](NC(=O)[C@H](CC(C)C)NC(=O)[C@H](Cc1c[nH]c2ccccc12)NC(=O)[C@H](CCC(N)=O)NC(=O)[C@@H](NC(=O)[C@H](Cc1ccccc1)NC(=O)[C@H](CC(=O)O)NC(=O)[C@H](CCC(N)=O)NC(=O)[C@H](C)NC(=O)[C@H](CCCNC(=N)N)NC(=O)[C@H](CCCNC(=N)N)NC(=O)C(C)(C)NC(=O)[C@H](CC(=O)O)NC(=O)[C@H](CC(C)C)NC(=O)[C@H](Cc1ccc(O)cc1)NC(=O)[C@H](CCCCN)NC(=O)[C@H](CO)NC(=O)[C@H](CCCCNC(=O)COCCOCCNC(=O)COCCOCCNC(=O)CC[C@H](NC(=O)CCCCCCCCCCCCCCCCC(N)=O)C(=O)O)NC(=O)[C@H](CC(=O)O)NC(=O)[C@H](CO)NC(=O)[C@@H](NC(=O)[C@H](Cc1ccccc1)NC(=O)[C@@H](NC(=O)CNC(=O)[C@H](CCC(N)=O)NC(=O)C(C)(C)NC(=O)[C@@H](N)Cc1c[nH]cn1)[C@@H](C)O)[C@@H](C)O)C(C)C)C(=O)N[C@@H](CC(N)=O)C(=O)N[C@H](C(=O)N[C@@H](CCCCN)C(=O)O)[C@@H](C)O` [Compound 13], the concentration for a half-maximal effect (EC50) at Human glucagon receptors and on Human GLP-1 receptors was 0.01 to 0.1 nM throughout.
